Source: patent US20190308956A1, “PIPERAZINE DERIVATIVES AS ANTIVIRAL AGENTS WITH INCREASED THERAPEUTIC ACTIVITY” (SERVICIO ANDALUZ DE SALUD, priority 2016, published 2019)
Read-outs that look alike come from different tables or passages of the source.

Columns and labels:
HCMV (AD169) = assay: HCMV infectivity assay by quantitative PCR; type: cell-based, human cytomegalovirus; conditions: Human betaherpesvirus 5, AD169, MRC5, MRC-5 cells, 72 h, qPCR, read-out: Inhibition of HCMV DNA replication
Protocol: 1.9. HCMV infectivity assay by quantitative PCR. […] After 72 h of incubation at 37° C., DNA was purified from the cell lysate with the QlAamp DNA Mini Kit (QIAGEN, Valencia, Calif.) following the manufacturer's instructions. TaqMan primers and probes for a region of the US28 gene were designed with the GenScript Real-time PCR (TaqMan) Primer Design software (GenScript). Oligonucleotides sequences were CMV-F: 5′-[…]-3′; CMV-R: 5′-[…]-3′; and CMV-Probe: 5′-[…]-3′. Real-time PCR mixtures consisted of 10 μl the purified DNA, CMV-F at a concentration of 100 nM, CMV-R at a concentration of 300 nM, and CMV-Probe at a concentration of 50 nM in a total volume of 12.5 μl and mixed with 12.5 μl of KAPA PROBE FAST qPCR Master Mix (KAPABiosystems, MA). The PCR cycling protocol was 95° C. for 10 min followed by 40 cycles of 95° C. for 30 sec and 58° C. for 60 sec. Human glyceraldehyde-3-phosphate dehydrogenase (GAPDH) was used as internal control. Oligonucleotides sequences for GAPDH and conditions were those previously reported by Rivera et al.44 For quantification, gene fragment from US28 and GAPDH were cloned into the pGEM-T Easy vector (Promega) and known concentrations of template were used to generate a standard curve in parallel for each experiment. All assays were performed in a C1000 Thermal Cycler apparatus (BioRad).

HAdV16-GFP = assay: Plaque assay, HAdV16-GFP in 293β5 cells; type: cell-based; conditions: for Selectivity Index (SI) HAdV16: ratio CC50 to IC50, HAdV16
Protocol: 1.5. Plaque assay. For low MOI infections, active compounds were further evaluated in a plaque assay. 293β5 cells were seeded in 6-well plates at 4×10^5 cells per well in duplicate for each condition. When cells reached 80-90% confluency, they were infected with HAdV5-GFP or HAdV16-GFP (0.06 vp/cell) and rocked for 2 h at 37° C. The inoculum was removed and the cells were washed once with PBS. The cells were then carefully overlaid with 4 ml/well of equal parts of 1.6% […] Difco Agar Noble (Becton, Dickinson & Co, Sparks, MD) and 2× EMEM (BioWhittaker) supplemented with 2x penicillin/streptomycin, 2× L-glutamine and 10% FBS. The mixture also contained compound in concentrations ranging from 5 to 1 μM. Following incubation for 7 days at 37° C., plates were scanned with a Typhoon 9410 imager (GE Healthcare Life Sciences), and plaques were quantified with ImageJ.43

HAdV5-GFP [1] = assay: Plaque assay, HAdV5-GFP in 293β5 cells; type: cell-based; conditions: for Selectivity Index (SI) HAdV5: ratio CC50 to IC50, HAdV5; for inhibition at 10 µM: read-out: Percentage of plaque formation inhibition, HAdV5-GFP, 10 μM, 293β5 cell line
Summary of the method: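 293β5 cells infected with HAdV5-GFP at 0.06 vp/cell for 2 h at 37° C. Then overlaid with agar/EMEM containing compound (5 to 1 μM stated range; screen run at 10 μM). After 7 days at 37° C., GFP plaques imaged and counted relative to DMSO control.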

[2] = Cytotoxicity assay (alamarBlue cell viability); type: cell-based, Human; conditions: human, A549 cells, 48 h
Summary of the method: (§1)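 Actively dividing A549 cells exposed to compounds for 48 h, then alamarBlue (1/10th in culture medium) added for a further 4 h. CC50 taken as concentration giving 50% cytotoxicity; selectivity index = CC50/IC50, with IC50 from HAdV infection inhibition.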

wild-type HAdV16 = assay: Virus yield reduction (burst assay, TCID50), HAdV16; type: cell-based; conditions: 50 μM, A549 cells, 48 h, yield with DMSO divided by yield with compound
Protocol: (§2) 1.8. Virus yield reduction. The effect of the active compounds on virus production was evaluated in a burst assay A549 cells were infected with wild-type HAdV5 or HAdV16 (MOI 100) in the presence or absence of 50 μM compounds. After 48 h, cells were harvested and subjected to three rounds of freeze/thaw. Serial dilutions of clarified lysates were titrated on A549 cells and TCID50 values were calculated using an endpoint dilution method.46

wild-type HAdV5 = assay: Virus yield reduction (burst assay, TCID50), HAdV5; type: cell-based; conditions: for Virus yield reduction HAdV5: 50 μM, A549 cells, 48 h, yield with DMSO divided by yield with compound
Protocol: as §2

[3] = tested on: Acinetobacter baumannii strains resistant to colistine; assay: Minimal inhibitory concentration (MIC), microdilution in MHBII; type: cell-based; conditions: 5×10^5 CFU/ml, 18 h; for CMI (MIC) Ab 11: strain Ab 11, MHBII; for CMI (MIC) Ab 14: strain Ab 14, MHBII; for CMI (MIC) Ab 17: strain Ab 17, MHBII; for CMI (MIC) Ab 21R: strain Ab 21R; for CMI (MIC) Ab 24: strain Ab 24, MHBII
Description: (§3) All of the strains used were Acinetobacter baumannii strains resistant to colistine: Resistance (R)≥4 Sensibility (S)≤2—All of these strains have been disclosed in Valencia R, Arroyo L A, Conde M, Aldana J M, Torres M J, Fernandez-Cuenca F, et al. Nosocomial outbreak of infection with pan-drug-resistant Acinetobacter baumannii in a tertiary care university hospital. Infection control and hospital epidemiology. 2009; 30(3):257-63. The specific strains used were the following: 1, 10, 11, 14, 16, 17, 19, 20, 21R, 22P, 24, 99 and 113.
Microdilution in cell medium Mueller Hinton Broth II (MHBII). This technique was carried out solely in those piperazines which presented inhibitory activity in the screening study.
We used decreasing concentrations of each piperazine derivative (from 50 μM -0.05 μM) in a concentration of 5×10^5 CFU/ml of each strain of A. baumannii in 96 well plates. These plates were incubated for 18 hours at a temperature 37° C.

HAdV5-GFP [4] = assay: Entry assay, HAdV5-GFP in A549 cells (GFP expression); type: cell-based
Protocol: 1.3. Entry assay. An initial rapid screening was performed using human A549 epithelial cells (3×10^5 cells/well in Corning black wall, clear bottom 96-well plates) infected with HAdV5-GFP (2,000 vp/cell) in the presence of 50 μM of the candidate antiviral compounds. Virus was preincubated with the compounds (individual and mixed) for 45 minutes at 4° C., and then added to cells. A standard infection curve was generated in parallel by infecting cells in the absence of compounds using serial two-fold dilutions of virus. All reactions were done in triplicate. Cells, virus and compounds were incubated for 48 h at 37° C. and 5% CO2. Infection, as measured by HAdV-mediated GFP expression, was analyzed using a Typhoon 9410 imager (GE Healthcare Life Sciences), and quantified with ImageQuantTL (GE Healthcare Life Sciences).

A549 cells = assay: Cytotoxicity assay (alamarBlue cell viability); type: cell-based, Human
Summary of the method: as §1

[5] = tested on: Acinetobacter baumannii strains resistant to colistine; assay: Screening of inhibition of bacterial growth at 50 μM; type: cell-based; conditions: 5×10^5 CFU/ml, 18 h; for Screening, growth inhibition Ab 11: strain Ab 11, 50 μM; for Screening, growth inhibition Ab 14: strain Ab 14, 50 μM; for Screening, growth inhibition Ab 17: strain Ab 17, 50 μM; for Screening, growth inhibition Ab 21R: strain Ab 21R; for Screening, growth inhibition Ab 24: strain Ab 24, 50 μM
Description: as §3
Evaluation of the inhibition of the bacterial growth of the 4 families of piperazines derivatives was performed by using a final concentration of 50 μM of each piperazine derivative in a concentration of 5×10^5 CFU/ml of each strain of A. baumannii in 96-well plates.
These plates were incubated for 18 hours at 37° C.

| SMILES | CMI (MIC) Ab 11 [3] | CMI (MIC) Ab 17 [3] | CMI (MIC) Ab 21R ([3]; MHBII) | CMI (MIC) Ab 24 [3] | Starting Inhibition assay (HAdV5-GFP [4]) | Inhibition assay in plaque (HAdV5-GFP [1]) | CC50 (A549 cells) | Screening, growth inhibition Ab 11 [5] | Screening, growth inhibition Ab 17 [5] | Screening, growth inhibition Ab 21R ([5]; 50 μM) | Screening, growth inhibition Ab 24 [5] | YIELD REDUCTION (wild-type HAdV5) | also measured |
| --- | --- | --- | --- | --- | --- | --- | --- | --- | --- | --- | --- | --- | --- |
| O=C(c1cc2ccccc2o1)N1CCN(C(=O)Nc2ccc(Cl)cc2)C(c2ccccc2)C1 (centres unmarked) [Compound 60, 4-(Benzofuran-2-carbonyl)-1-[(4-chlorophenyl)aminocarbonyl]-2-phenylpiperazine] |  |  |  |  |  |  |  |  |  |  |  |  | inhibition at 50 µM (HCMV (AD169)): 98.2 ± 2.1%; IC50 (HAdV16-GFP): 3.4 ± 0.93 µM; Selectivity Index (SI) HAdV16 (HAdV16-GFP): 56.9; Selectivity Index (SI) HAdV5 (HAdV5-GFP [1]): 79; IC50 (HAdV5-GFP [1]; read-out: IC50 HAdV5): 2.5 ± 1.17 µM; inhibition at 10 µM (HAdV5-GFP [1]): 96 to 100%; CC50 at 48 h [2]: 194 ± 9.19 µM; Virus yield reduction HAdV16 (wild-type HAdV16): 27.4 ± 16.9 fold; Virus yield reduction HAdV5 (wild-type HAdV5): 9.9 ± 3.4 fold |
| CC1CN(C(=O)Cc2ccccc2)CCN1C(=S)Nc1cc(C(F)(F)F)cc(C(F)(F)F)c1 (centres unmarked) [Vip 634] | 6.25 µM | 3.12 µM | 3.12 µM | 6.25 µM | 94.46 ± 3.87 | 99.50 ± 1.58 | 130 µM | <50 µM | <50 µM | <50 µM | <50 µM | 33.42 ± 10.16 | CMI (MIC) Ab 14 [3]: 3.12 µM; Screening, growth inhibition Ab 14 [5]: <50 µM |
| CC1CN(C(=O)OC(C)(C)C)CCN1C(=S)Nc1ccc(F)cc1 (centres unmarked) [Vip 585] |  |  |  |  | 75.54 ± 13.76 | 92.91 ± 3.82 | 200 µM |  |  |  |  | 12.08 ± 2.78 |  |
| O=C(c1cc2ccccc2o1)N1CCN(C(=O)Nc2ccc([N+](=O)[O-])cc2)C(c2ccccc2)C1 (centres unmarked) [Compound 59, 4-(Benzofuran-2-carbonyl)-1-[(4-nitrophenyl)aminocarbonyl]-2-phenylpiperazine] |  |  |  |  |  |  |  |  |  |  |  |  | inhibition at 50 µM (HCMV (AD169)): 99.9 ± 0.06%; IC50 (HAdV16-GFP): 3.5 ± 1.03 µM; Selectivity Index (SI) HAdV16 (HAdV16-GFP): 55.4; Selectivity Index (SI) HAdV5 (HAdV5-GFP [1]): 93.5; IC50 (HAdV5-GFP [1]; read-out: IC50 HAdV5): 2.1 ± 0.1 µM; inhibition at 10 µM (HAdV5-GFP [1]): 96 to 100%; CC50 at 48 h [2]: 193.9 ± 1.68 µM; Virus yield reduction HAdV16 (wild-type HAdV16): 34.6 ± 11.6 fold; Virus yield reduction HAdV5 (wild-type HAdV5): 35.7 ± 13.5 fold |
| CC1CN(C(=O)Cc2ccccc2)CCN1C(=S)Nc1ccc([N+](=O)[O-])cc1 (centres unmarked) [Vip 628] | 50 µM | 25 µM |  | 50 µM | 60.79 ± 17.31 | 98.21 ± 3.57 | 210 µM | <50 µM | <50 µM |  | <50 µM | 25.59 ± 10.45 | IC50 (HAdV5-GFP [1]; read-out: IC50 plaque): 2.04 µM |
| CC1CN(C(=O)OC(C)(C)C)CCN1C(=S)Nc1ccc(C#N)cc1 (centres unmarked) [Vip 584] | 50 µM | 25 µM | 50 µM | 50 µM | 58.11 ± 25.72 | 88.91 ± 15.92 | 175 µM | <50 µM | <50 µM | <50 µM | <50 µM |  | CMI (MIC) Ab 14 [3]: 50 µM; CMI (MIC) Ab 22P ([3]; strain Ab 22P, MHBII): 50 µM; Screening, growth inhibition Ab 14 [5]: <50 µM; Screening, growth inhibition Ab 22P ([5]; strain Ab 22P, 50 μM): <50 µM |
| CC1CN(C(=O)Cc2ccccc2)CCN1C(=S)Nc1ccc(C#N)cc1 (centres unmarked) [Vip 635] | 50 µM | 50 µM | 50 µM | 50 µM | 60.06 ± 17.39 | 98.36 ± 2.13 | 175 µM | <50 µM | <50 µM | <50 µM | <50 µM | 18.39 ± 5.44 |  |
